These results are taken from patent EP1889617A1, “Triphenyl modified 5-membered heterocycles and their use as anticancer and antiflammatory agents” (Freie Universität Berlin, priority 2006, dated 2008).

What is called IC50 is the concentration needed to halve the response being measured.

One experiment relates to MCF-7 cells. Briefly: Cytotoxic effects, concentration dependent test (IC50), crystal violet staining. The experiment is classed as cell-based. As to conditions: Homo sapiens, MCF7; estrogen receptor positive MCF-7 cells; incubation of 72 h. The protocol:
(§1) The cytotoxic assay in estrogen receptor positive MCF-7 cells has been described previously by Ruenitz, P.C. et al. (1997) J. Steroid Biochem. Mol. Biol. 63, 203-209). Fiation, staining and quantitation of the cells were carried out according to Gillies (Gillies, R.J. et al. (1986) Anal. Biochem. 159, 109-113) and Kueng (Kueng, W. et al. (1989) Anal. Biochem. 182, 16-19). Moreover the test was carried out with estrogen receptor negative MD-MB 231 cells. MCF-7 cells (MDA-MB 231 cells) from an almost confluent monolayer were harvest by trypsinization and suspended to approximately 7 x 10^3 cells/mL (1 x 10^3 cells/mL). At the beginning of the experiment, the cell suspension was transferred to 96-well microplates (100 µL/well). After cultivating them for 3 days at growing conditions the medium was removed and replaced by one containing the test compounds. Control wells (16/plate) were contained 0.1% of DMSO, which was used for the preparation of the stock solutions. The initial cell density was determined by addition of glutaric dialdehyde (1 % in PBS; 100 µL/well). After incubation for 3-7 days, the medium was removed, and glutaric dialdehyde (1 % in PBS; 100 µL/well) was added for fixation. After 15 min, the solution of the aldehyde was decanted and 180 µL PBS/well added. The plates were stored at 4°C until staining. Cells were stained by treating them for 25 min with 100 µL of an aqueous solution of crystal violet (0.02%). After decanting cells were washed several times with water to remove the adherent dye. After addition of 180 µL of ethanol (70%), plates were gently shaken for 4 h. Optical density of each well was measured in a microplate autoreader at 590 nm.
(§2) MCF-7 cells (MDA-MB 231 cells) from an almost confluent monolayer were harvested by trypsinization and suspended to approximately 10 × 10^3 cells/mL (5 x 10^3 cells/mL). After cultivating them for 3 days at growing conditions the medium was removed and replaced by one containing the test compounds (control wells 8/plate). After incubation of 72 h (48 h) the medium was removed and the test was continued as descried above.

Another experiment relates to MDA-MB 231 cells. The experiment is described as above. The settings on record: Homo sapiens; estrogen receptor negative MDA-MB 231 cells; incubation of 48 h. The experiment is classed as cell-based. The protocol:
as §1, §2

For a further experiment, the target named is T1, estrogen receptor (Homo sapiens, UniProt P03372).
T1 construct: endogenous in cells; host or cells: MCF-7
T1 sequence (P03372 1-595): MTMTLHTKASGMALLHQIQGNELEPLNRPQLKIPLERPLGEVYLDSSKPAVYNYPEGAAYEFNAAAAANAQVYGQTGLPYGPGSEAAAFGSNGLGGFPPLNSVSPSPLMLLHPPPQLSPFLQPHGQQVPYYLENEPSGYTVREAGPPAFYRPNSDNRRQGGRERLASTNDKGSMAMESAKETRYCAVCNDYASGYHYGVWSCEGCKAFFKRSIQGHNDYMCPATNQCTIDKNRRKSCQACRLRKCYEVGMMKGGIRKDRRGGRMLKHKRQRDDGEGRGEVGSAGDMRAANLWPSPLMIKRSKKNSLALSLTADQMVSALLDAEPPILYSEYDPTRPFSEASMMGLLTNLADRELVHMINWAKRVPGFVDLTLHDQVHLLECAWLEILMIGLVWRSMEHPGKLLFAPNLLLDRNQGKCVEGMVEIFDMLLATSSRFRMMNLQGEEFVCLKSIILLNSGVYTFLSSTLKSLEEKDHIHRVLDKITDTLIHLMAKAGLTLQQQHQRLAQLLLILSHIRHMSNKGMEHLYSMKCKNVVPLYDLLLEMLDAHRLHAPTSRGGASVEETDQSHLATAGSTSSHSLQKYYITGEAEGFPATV
Nature of the experiment: Whole Cell Assay (WCA): competitive estrogen receptor binding against [3H]17β-estradiol. The settings on record: test compound 10^-6 M, 1 h incubation (37°C), percentage to a solvent treated control sample. As to the method:
(§3) ER binding affinity is measured in competitive binding assays compared to estradiol. Binding affinity is expressed as a relative binding affinity (RBA) in percent compared to estradiol which is assigned an affinity of 100%. Substantial affinity for ER is indicated by an RBA of about 0,1% or more. Good affinity binding to ER is indicated by an RBA of about 1%- to about 10%. High affinity binding to ER is indicated by an RBA of about 10% or higher.
MCF-7 cells were plated in 24-well dishes (4 x 10^4 cells/well) and cultured for 48 h. After the incubation the medium was replaced by test compounds diluted in serum free medium containing [^3H]17β-Estradiol ([^3H]E2). Additional wells of each test compound concentration were filled with 500-fold excess of unlabeled E2 for nonspecific binding measurements. After 1 h incubation (37°C) the medium was removed and monolayer washed three times with an ice-cold saline solution. Bond E2 was then extracted from the monolayer with 1 mL ethanol at room temperature (20 min of incubation) and aliquots of 200 µL of ethanolic extracts were transferred to scintillation vials containing 3.8 mL scintillator Ecoscint H (National Diagnostic, Atlanta) for radioactivity counting. All measurements were performed in duplicate. Specific [^3H]E2 incorporation into the cells was calculated from the difference in incorporated radioactivity after incubation in the absence or presence of an excess of unlabeled E2. The results (relative radioactivity) were expressed as a percentage to a solvent treated control sample.

Experiment [1] addresses T2, recombinant human estrogen receptor (hERα) (Homo sapiens, UniProt P03372).
T2 construct: purchased Calbiochem
T2 sequence (P03372 1-595): T1 sequence (P03372 1-595)
Briefly: Recombinant ERα (HAP Assay): competitive binding against [3H]E2 on hydroxylapatite. As to conditions: hERα adsorbed on hydroxylapatite; test compound 10^-6 M; overnight at 4°C; percentage to a solvent treated control sample. As to the method:
as §3
An ethanolic solution (250 fmol/µL) of recombinant human estrogen receptor (hERα) (Calbiochem) was diluted with Tris-HCl buffer pH 8.0 (1:100). This hERα preparations adsorbed on hydroxylapatite pellets (prepared in 10 mmol/L Tris HCl buffer pH 8.0) which were labeled with increasing concentrations of the test compound (10^-10 - 10^-5 M) and [^3H]E2 (0.1 %) in presence or absence of 200-fold excess of unlabeled E2 and were incubated overnight at 4°C. Bond [^3H]E2 were then successively extracted with ethanol and aliquots of 200 µL of ethanolic extracts were transferred to scintillation vials containing 3.8 mL scintillator Ecoscint H (National Diagnostic, Atlanta) for radioactivity counting. The data interpretation was carried out as shown above.

Regarding `Oc1ccc(-c2cc(-c3ccc(O)cc3)c(-c3ccc(O)cc3Cl)[nH]2)cc1` [Example 7, 2-(2-Chloro-4-hydroxyphenyl)-3,5-bis(4-hydroxyphenyl)-1H-pyrrole], the IC50 was 16.4 µM in the experiment on MCF-7 cells and 13.5 µM with MDA-MB 231 cells. Also, the “Relative radioactivity of labeled [^3H]E2; RBA-value MCF-7 cells (WCA); 10^-6 M” value (“Relative radioactivity … (WCA); 10^-6 M” for short) at estrogen receptor is on record as 35.3 ± 4.9%. In experiment [1], the “Relative radioactivity of labeled [^3H]E2; RBA-value HAP-Assay; 10^-6 M” value came out at 26.4 ± 8.3%.
Turning to `COc1ccc(-c2cc(-c3ccc(OC)cc3Cl)c(C)n2-c2ccc(OC)cc2)cc1` [Example 13, 4-(2-Chloro-4-methoxyphenyl)-1,2-bis(4-methoxyphenyl)-5-methyl-1H-pyrrole], the IC50 in the experiment on MCF-7 cells stood at 23.6 µM; in the experiment with MDA-MB 231 cells, 20.3 µM.
Regarding `Oc1ccc(-c2cc(-c3ccc(O)cc3Cl)[nH]c2-c2ccc(O)cc2Cl)cc1` [Example 9, 2,5-Bis(2-chloro-4-hydroxyphenyl)-3-(4-hydroxyphenyl)-1H-pyrrole], the IC50 in the experiment with MCF-7 cells came to 7.6 µM; in the experiment on MDA-MB 231 cells, 13.4 µM. In addition, at estrogen receptor, the “Relative radioactivity … (WCA); 10^-6 M” value was determined as 13.1 ± 3.2%. For the same compound, the “Relative radioactivity of labeled [^3H]E2; RBA-value HAP-Assay; 10^-6 M” value in experiment [1] is recorded as 19.1 ± 1.5%.
Regarding `COc1ccc(-c2cc(-c3ccc(OC)cc3Cl)[nH]c2-c2ccc(OC)cc2)cc1` [Example 2, 5-(2-Chloro-4-methoxyphenyl)-2,3-bis(4-methoxyphenyl)-1H-pyrrole], the IC50 in the experiment with MCF-7 cells is 9.5 µM; in the experiment on MDA-MB 231 cells it was 10.3 µM.
As to `CCCc1c(-c2ccc(Cl)cc2O)[nH]c(-c2ccc(O)cc2)c1-c1ccc(O)cc1` [Example 12, 2-(4-Chloro-2-hydroxyphenyl)-4,5-bis(4-hydroxyphenyl)-3-propyl-1H-pyrrole], the IC50 in the experiment with MCF-7 cells turned out to be 8.1 µM; in the experiment with MDA-MB 231 cells it was 6.5 µM. Also, the “Relative radioactivity … (WCA); 10^-6 M” value at estrogen receptor is reported as 78.1 ± 4.4%. Also, the “Relative radioactivity of labeled [^3H]E2; RBA-value HAP-Assay; 10^-6 M” value in experiment [1] is reported as 70.3 ± 6.1%.
For `CCc1c(-c2ccc(O)cc2Cl)cc(-c2ccc(O)cc2)n1-c1ccc(O)cc1` [Example 19, 4-(2-Chloro-4-hydroxyphenyl)-5-ethyl-1,2-bis(4-hydroxyphenyl)-1H-pyrrole], the results for the IC50 in the experiment on MCF-7 cells and in the experiment with MDA-MB 231 cells were 17.8 µM and 18.4 µM, respectively. Besides, at estrogen receptor, the “Relative radioactivity … (WCA); 10^-6 M” value amounted to 41.2 ± 8.3%. In addition, in experiment [1], the “Relative radioactivity of labeled [^3H]E2; RBA-value HAP-Assay; 10^-6 M” value was determined as 30.1 ± 5.1%.
In the case of `CCCc1c(-c2ccc(O)cc2Cl)cc(-c2ccc(O)cc2)n1-c1ccc(O)cc1` [Example 20, 4-(2-Chloro-4-hydroxyphenyl)-1,2-bis(4-hydroxyphenyl)-5-propyl-1H-pyrrole], the IC50 with MCF-7 cells was determined as 19.5 µM; in the experiment on MDA-MB 231 cells, 16.2 µM.
In the case of `COc1ccc(-c2cc(-c3ccc(OC)cc3Cl)c(CC(C)C)n2-c2ccc(OC)cc2)cc1` [Example 16, 4-(2-Chloro-4-methoxyphenyl)-5-isobutyl-1,2-bis(4-methoxyphenyl)-1H-pyrrole], the IC50 is 18 µM in the experiment with MCF-7 cells and 15.2 µM in the experiment on MDA-MB 231 cells.
Turning to `COc1ccc(-c2cc(-c3ccc(OC)cc3)c(-c3ccc(OC)cc3Cl)[nH]2)cc1` [Example 1, 2-(2-Chloro-4-methoxyphenyl)-3,5-bis(4-methoxyphenyl)-1H-pyrrole], the IC50 with MCF-7 cells came to 17.7 µM; with MDA-MB 231 cells, 27.4 µM.
Turning to `CCCc1c(-c2ccc(OC)cc2F)cc(-c2ccc(OC)cc2)n1-c1ccc(OC)cc1` [Example 17, 4-(2-Fluoro-4-methoxyphenyl)-1,2-bis(4-methoxyphenyl)-5-propyl-1H-pyrrole], the IC50 was determined as 17.8 µM in the experiment with MCF-7 cells and 18.4 µM in the experiment on MDA-MB 231 cells.
Regarding `Oc1ccc(-c2cc(-c3ccc(O)cc3Cl)[nH]c2-c2ccc(Cl)cc2O)cc1` [Example 11, 5-(2-Chloro-4-hydroxyphenyl)-2-(4-chloro-2-hydroxyphenyl)-3-(4-hydroxyphenyl)-1H-pyrrole], the IC50 came out at 10.5 µM with MCF-7 cells and 14 µM in the experiment with MDA-MB 231 cells.
Consider `Oc1ccc(-c2cc(-c3ccc(O)cc3)c(-c3ccc(Cl)cc3O)[nH]2)cc1` [Example 10, 2-(4-Chloro-2-hydroxyphenyl)-3,5-bis(4-hydroxyphenyl)-1H-pyrrole], for which the 50% inhibitory concentration (IC50) with MCF-7 cells turned out to be 9.2 µM; with MDA-MB 231 cells it was 18.8 µM.
For the compound `CC(C)Cc1c(-c2ccc(O)cc2Cl)cc(-c2ccc(O)cc2)n1-c1ccc(O)cc1` [Example 21, 4-(2-Chloro-4-hydroxyphenyl)-5-isobutyl-1,2-bis(4-hydroxyphenyl)-1H-pyrrole], the half-maximal inhibitory concentration (IC50) with MCF-7 cells worked out at 15.2 µM; in the experiment on MDA-MB 231 cells, 16.1 µM.
Take `Cc1c(-c2ccc(O)cc2Cl)cc(-c2ccc(O)cc2)n1-c1ccc(O)cc1` [Example 18, 4-(2-Chloro-4-hydroxyphenyl)-1,2-bis(4-hydroxyphenyl)-5-methyl-1H-pyrrole]: the IC50 came to 23.4 µM in the experiment on MCF-7 cells and 17.4 µM in the experiment on MDA-MB 231 cells.
